Read-outs that look alike come from different tables or passages of the source. * marks the point of attachment. Palmitoyl = CCCCCCCCCCCCCCCC(=O)*

Data on 2 substances can be found in patent publication US20130101628A1 (NORTHWESTERN UNIVERSITY, priority 2011, published 2013).

Test [1] addresses T1, VEGF receptor 2 (VEGFR2 or KDR) (Homo sapiens, UniProt P35968).
T1 construct: host or cells: HUVEC
Put plainly: Sandwich ELISA of phosphorylated VEGFR2 in lysates of stimulated HUVEC. The format is cell-based. As for the experimental part: (§1) Human umbilical vein endothelial cells (HUVECs) and complete endothelial cell growth media (EGM) were purchased (Genlantis, San Diego, Calif.), passaged two times following receipt, and cryo-preserved in media with 5% DMSO. Cells were thawed as needed and grown to confluence in a […] flasks (VWR Falcon) prior to plating for experiments.
(§2) Phosphorylation of both VEGFRI and VEGFR2 was assayed using commercially available assay kit (R&D Systems, Minneapolis, Minn.) following the recommended protocol. First, confluent HUVECs plated in 24 well plates were starved for 5 hours in serum-free defined media (SFDM, Genlantis) specifically designed to maintain cells in a growth factor-free setting for growth factor signaling and metabolic assays. Following starvation, the various treatments were dissolved in SFDM to a concentration of 1 μM. […] Cells were exposed to treatment for 2 minutes. To evaluate the time-course of phosphorylation the same protocol was followed and cells were exposed to VEGF-PA for 0, 1, 3, 5, 10, 15, 20, 25, 30, 40, 50, and 60 minutes.
(In general: An ELISA detects its analyte on a solid surface through an enzyme-linked reagent.)

The target in test [2] is T2, VEGF receptor 1 (VEGFR1 or Flt-1) (Homo sapiens, UniProt P17948).
T2 construct: host or cells: HUVEC
T2 sequence (P17948 27-1338): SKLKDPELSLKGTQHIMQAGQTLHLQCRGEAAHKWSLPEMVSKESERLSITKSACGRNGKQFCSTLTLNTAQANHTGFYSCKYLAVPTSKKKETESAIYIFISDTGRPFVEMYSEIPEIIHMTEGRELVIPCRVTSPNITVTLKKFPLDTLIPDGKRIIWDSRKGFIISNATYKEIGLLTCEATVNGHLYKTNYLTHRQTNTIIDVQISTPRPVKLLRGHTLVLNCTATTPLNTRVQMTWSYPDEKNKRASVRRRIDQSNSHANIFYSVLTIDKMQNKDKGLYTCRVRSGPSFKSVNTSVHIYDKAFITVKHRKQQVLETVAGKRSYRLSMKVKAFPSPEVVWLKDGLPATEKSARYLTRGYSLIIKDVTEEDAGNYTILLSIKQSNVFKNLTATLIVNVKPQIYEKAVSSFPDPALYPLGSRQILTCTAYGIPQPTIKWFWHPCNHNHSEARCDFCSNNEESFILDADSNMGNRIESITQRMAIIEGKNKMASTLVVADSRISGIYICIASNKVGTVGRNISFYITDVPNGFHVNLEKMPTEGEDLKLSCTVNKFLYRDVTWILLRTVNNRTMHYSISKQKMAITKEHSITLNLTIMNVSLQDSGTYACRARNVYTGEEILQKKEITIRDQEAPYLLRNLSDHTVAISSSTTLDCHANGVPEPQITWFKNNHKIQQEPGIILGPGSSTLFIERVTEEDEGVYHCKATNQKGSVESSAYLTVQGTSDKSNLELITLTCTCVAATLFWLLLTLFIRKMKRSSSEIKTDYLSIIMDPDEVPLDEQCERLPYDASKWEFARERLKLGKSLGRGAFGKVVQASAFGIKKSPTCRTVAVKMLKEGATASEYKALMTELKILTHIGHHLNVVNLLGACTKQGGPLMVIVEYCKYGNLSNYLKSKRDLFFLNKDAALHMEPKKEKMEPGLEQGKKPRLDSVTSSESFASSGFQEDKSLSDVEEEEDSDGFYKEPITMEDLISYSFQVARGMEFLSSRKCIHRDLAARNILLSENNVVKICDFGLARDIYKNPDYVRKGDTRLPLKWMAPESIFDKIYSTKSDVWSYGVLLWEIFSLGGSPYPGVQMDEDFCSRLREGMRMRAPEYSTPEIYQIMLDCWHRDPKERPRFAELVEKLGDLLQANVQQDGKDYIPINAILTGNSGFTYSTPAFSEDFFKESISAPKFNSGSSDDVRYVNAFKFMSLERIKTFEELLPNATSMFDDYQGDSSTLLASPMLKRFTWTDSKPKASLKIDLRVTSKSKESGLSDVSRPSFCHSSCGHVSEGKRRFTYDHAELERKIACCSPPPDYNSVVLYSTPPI
Description: Sandwich ELISA of phosphorylated VEGFR1 in lysates of stimulated HUVEC. The test is classed as cell-based. The following applies: HUVEC, native VEGF 100 ng/ml positive control, 2 minutes exposure. On the procedure: as §1, §2

For test [3], the system named is HUVECs. Put plainly: HUVEC proliferation (CyQUANT-NF cell number). The format is cell-based, human. The following applies: 1 μM in EGM, 48 hours; untreated control 100.0%. On the procedure:
In vitro studies were performed using HUVECs, a primary endothelial cell that is VEGF-responsive and frequently used as a model endothelial cell for angiogenesis studies in vitro [31].
To evaluate proliferation, HUVECs were plated at 5000 per well in a 96 well plate. […] Additionally, unsupplemented growth media was used as a control. After 48 hours, cell number was quantified using CyQUANT-NF (Invitrogen) and a standard fluorescent microplate reader. Cell number is expressed relative to the group treated with unsupplemented growth media.

In test [4] the test system is chicken chorioallantoic membrane (CAM). Description: Shell-less chicken chorioallantoic membrane (CAM) angiogenesis assay. The test is classed as in vivo. Conditions: 2 mM in PBS dried on coverslip, three days following treatment; saline 132%. The text has this: An established assay reflecting in vivo angiogenesis, the chicken chorioallantoic membrane (CAM) assay, was used to evaluate the angiogenic potential of the VEGF-PA of the present examples. This assay utilizes the extra-embryonic allantois, a tissue derived from the mesoderm that develops into a densely vascularized membrane. A common deviation from the traditional assay is to remove the shell and conduct the assay on a shell-less embryo, termed the shell-less CAM assay, as we have performed here. Fertilized white leghorn chicken eggs (Phil's Fresh Eggs, Forreston, Ill.) were received and cultured in a temperature controlled, humidified egg incubator. On embryonic day 3, eggs were cracked within a sterile tissue culture hood into round 100 mm petri dishes. Fertilized embryos were then transferred to a water-jacketed CO2 incubator, set to 37.5° C., 1% CO2 and 100% relative humidity. On embryonic day 10, the material treatment was dissolved at 2 mM in PBS, evaporated onto the surface of a 5 mm round glass cover slip, and placed facing down on top of the CAM (n=16/group). Digital images were captured through the eyepiece of a Nikon stereomicroscope and vessel density was quantified by the number of intersections of vessel structures with the edge of the cover slip and expressed relative to the initial time-point. Images were captured daily, beginning at embryonic day 10 and culminating on embryonic day 13, the standard range over which the CAM assay is performed. Additionally, images were assessed qualitatively for morphological differences in the CAM vasculature including spoking, branching and leakage.

For test [5], the system named is HUVECs. Description: HUVEC migration scratch assay. The format is cell-based, human. The following applies: 1 μM in EBM with 0.5% FBS, 18 hours; untreated 25.2%. As for the experimental part:
To evaluate cell migration, endothelial basal media (EBM) without growth factors (Lonza) was supplemented with 0.5% FBS in order to prevent apoptosis but not promote significant migration or proliferation. Cells were grown to confluence in a 12 well plate and a 1 ml pipette tip was used to create a denuded scratch and the surface was washed twice with PBS to remove detached cells. The average scratch width at the initial time-point was […] Markings were placed on the underside of the plate to ensure the same region of the scratch was recorded in each image. […] The total pixel area of the scratch at the initial time-point was recorded using ImageJ analysis software, and the percent migration was determined from the reduction in denuded area at 18 hours.

A further test relates to ischemic hind-limb. Description: Murine hind-limb ischemia (HLI) model. Conditions: for limb motor function score / tissue (limb) salvage score: single i.m. injection 25 μl of 2 mM; for limb motor function score: grade 1-5; for tissue (limb) salvage score: grade 1-6. The format is in vivo, mice. As for the experimental part:
For the HLI procedure, eight week old male FVB wild-type mice (Charles River) were anesthetized by intraperitoneal injection of avertin (125 mg/kg). By means of a dissecting microscope, the femoral nerve was carefully separated from the vessel bundle. The right femoral artery was ligated and excised, including all superficial and deep branches. Critical limb ischemia was immediately verified by laser Doppler imaging (LDPI, MoorLDI-SIM, Moor Instruments, Ltd) to ensure the ratio (ischemic/non-ischemic limb) was ≦0.20. At postoperative day 3, outliers with low ischemia were triaged based on LDPI (ratio ischemic/nonischemic 0.30) as were outliers with extreme ischemia (necrotic demarcation of entire limb), determined by macroscopic evaluation. […] For follow-up, animals underwent reevaluations with LDPI at postoperative day 7, 14, and 28 before animals were sacrificed (CO, asphyxia) for tissue harvest at day 28. At each time-point, tissue perfusion was measured via LDPI, measuring blood flow in both the ischemic and non-ischemic limb and reporting results as the ratio of these two measurements. All LDPI measurements were taken on a 37° C. heating pad to control body temperature. In addition, motor function and tissue damage was semi-quantitatively assessed on post-operative day 7, 14, 21 and 28 by established scoring systems. Tissue damage in the ischemic limb (limb salvage score) was graded as full recovery (grade 6), minor necrosis or nail loss (grade 5), partial toe amputation (grade 4), total toe amputation (grade 3), partial/total foot amputation (grade 2) or partial/total limb amputation (grade 1) (modified from). Limb motor function was graded as unrestricted (grade 5), no active use of toe(s) or spreading (grade 4), restricted foot use (grade 3), no use of foot (grade 2) or no use of limb at all (grade 1) (modified from). Finally, walking capacity was measured via a Rota Rod apparatus. […] The mean of two assessments was used as for failure time for each animal. At day 28, muscle tissue from the ischemic limb was harvested, fixed in methanol, paraffin-embedded, and cross-sectioned (6-μm) for histological immunostaining. Briefly, sections were blocked with 10% donkey serum (30 min, RT). Primary antibodies were diluted in PBS containing BSA, and applied to tissue slices for 2 hrs at 37° C. Sections were stained for CD31, an endothelial-specific marker, using rat anti-CD31 antibodies (BD Pharmingen Inc) and smooth-muscle α-actin (αSMA), a vascular smooth muscle marker, using rabbit-anti-αSMA (Sigma-Aldrich Co.). For immunofluorescent detection, primary antibodies were resolved with Alexa-Fluor-conjugated secondary antibodies (Invitrogen Corporation, Carlsbad, Calif., USA dilution) and nuclei were counterstained with DAPI (Research Organics). Slides were imaged using fluorescent microscopy (Zeiss), and CD31+capillary forms and CD31+/sMA+]mature microvessels/arterioles were quantified in 3 separate high-power fields (20×) from 3 independent sections in each animal (9 images/animal). All error bars indicate the standard error of the mean. Differences between groups were determined using a one-way analysis of variance (ANOVA) with a Bonferroni multiple comparisons post-hoc test using GraphPad InStat v3.0b. […] VEGF-PA or control treatments were administered by an intramuscular injection three days following the induction of critical ischemia by ligation and excision of the right femoral artery and all superficial and deep branches, as described above. Animals were assessed serially throughout the study for motor function and limb salvage and Laser Doppler perfusion imaging (LDPI) was used to assess tissue perfusion. At the end of the study, exercise endurance was recorded on a Rota Rod treadmill and tissue was harvested for immunohistological staining of capillaries to observe effects on the microcirculation.

The test system of test [6] is HUVECs. Description: HUVEC survival after serum-starvation (Annexin V-PE apoptosis). The format is cell-based, human. Conditions: 1 μM in EBM, serum-starvation 24 hours; untreated 31.7%. As for the experimental part:
To evaluate cell survival, endothelial basal media (EBM) without growth factors (Lonza) was used to induce a serum-starvation. Cells were plated in 12 well plates and grown to confluence with standard growth media. […] Cells were grown in these conditions for 24 hours. Survival was quantified using Annexin V: PE staining with 7-AAD vital staining (BD Biosciences) following provided assay instructions and analyzed on a DakoCytomation CyAn. Survival was assessed by determining the fraction of cells that were apoptotic (Annexin V-PE positive).

T1 sequence (P35968 20-1356): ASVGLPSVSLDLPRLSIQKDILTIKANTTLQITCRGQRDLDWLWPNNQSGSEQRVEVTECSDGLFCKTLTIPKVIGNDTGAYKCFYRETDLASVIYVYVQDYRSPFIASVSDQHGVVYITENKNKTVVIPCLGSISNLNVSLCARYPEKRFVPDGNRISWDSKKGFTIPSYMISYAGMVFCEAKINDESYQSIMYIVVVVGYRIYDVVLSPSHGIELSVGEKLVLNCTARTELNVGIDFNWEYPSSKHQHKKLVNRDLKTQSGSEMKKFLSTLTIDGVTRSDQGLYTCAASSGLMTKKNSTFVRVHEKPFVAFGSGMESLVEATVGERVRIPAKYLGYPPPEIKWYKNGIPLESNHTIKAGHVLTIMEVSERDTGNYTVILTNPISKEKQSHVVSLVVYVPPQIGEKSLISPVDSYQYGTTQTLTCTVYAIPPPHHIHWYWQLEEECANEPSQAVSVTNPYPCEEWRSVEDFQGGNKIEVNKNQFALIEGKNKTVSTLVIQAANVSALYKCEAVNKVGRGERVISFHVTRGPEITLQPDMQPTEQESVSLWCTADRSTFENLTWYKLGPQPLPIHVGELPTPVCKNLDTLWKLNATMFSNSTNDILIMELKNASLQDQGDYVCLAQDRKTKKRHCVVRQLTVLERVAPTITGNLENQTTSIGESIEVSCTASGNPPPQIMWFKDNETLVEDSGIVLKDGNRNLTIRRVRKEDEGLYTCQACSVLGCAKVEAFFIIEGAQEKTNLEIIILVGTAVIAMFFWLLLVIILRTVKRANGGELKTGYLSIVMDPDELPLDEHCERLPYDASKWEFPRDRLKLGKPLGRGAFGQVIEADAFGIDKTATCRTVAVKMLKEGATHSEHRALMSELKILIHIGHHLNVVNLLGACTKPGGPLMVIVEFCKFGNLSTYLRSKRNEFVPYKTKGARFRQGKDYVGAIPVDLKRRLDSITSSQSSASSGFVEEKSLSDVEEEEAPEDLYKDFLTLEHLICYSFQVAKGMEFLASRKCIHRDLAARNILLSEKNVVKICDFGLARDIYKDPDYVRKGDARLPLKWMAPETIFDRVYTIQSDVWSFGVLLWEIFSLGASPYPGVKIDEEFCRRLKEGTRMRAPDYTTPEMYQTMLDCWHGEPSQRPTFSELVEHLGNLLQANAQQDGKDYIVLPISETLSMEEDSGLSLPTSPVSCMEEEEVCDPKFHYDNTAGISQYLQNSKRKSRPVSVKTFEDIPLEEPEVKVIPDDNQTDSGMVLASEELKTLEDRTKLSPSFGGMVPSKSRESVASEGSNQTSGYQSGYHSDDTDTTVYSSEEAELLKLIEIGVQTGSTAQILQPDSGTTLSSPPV

Regarding VEGF, the “VEGFR2 phosphorylation level relative to untreated control” value in test [1] came out at 1.311±0.106. Besides, the “amount of phosphorylated VEGFR1, times untreated control” value in test [2] is listed as 1.306±0.044.
With “CH3(CH2)14C(O)—VVAAKKKGKLTAQELVFLKVKGI-NH2 (Palmitoyl-VVAAKKKGKLTAQELVFLKVKGI-NH2; SMILES CCCCCCCCCCCCCCCC(=O)N[C@H](C(=O)N[C@H](C(=O)N[C@@H](C)C(=O)N[C@@H](C)C(=O)N[C@@H](CCCCN)C(=O)N[C@@H](CCCCN)C(=O)N[C@@H](CCCCN)C(=O)NCC(=O)N[C@@H](CCCCN)C(=O)N[C@@H](CC(C)C)C(=O)N[C@H](C(=O)N[C@@H](C)C(=O)N[C@@H](CCC(N)=O)C(=O)N[C@@H](CCC(=O)O)C(=O)N[C@@H](CC(C)C)C(=O)N[C@H](C(=O)N[C@@H](Cc1ccccc1)C(=O)N[C@@H](CC(C)C)C(=O)N[C@@H](CCCCN)C(=O)N[C@H](C(=O)N[C@@H](CCCCN)C(=O)NCC(=O)N[C@H](C(N)=O)[C@@H](C)CC)C(C)C)C(C)C)[C@@H](C)O)C(C)C)C(C)C) [mutant PA]”, the “proliferation (cell number relative to unsupplemented growth media)” value in the test with HUVECs [3] is recorded as 101.8%±1.4%. Moreover, the “blood vessels relative to the initial value” in test [4] is recorded as 149%±8%. In addition, the “reduction in scratch wound size (denuded area)” value in the test with HUVECs [5] was 30.0%±7.3%. Also, the “LDPI perfusion ratio (ischemic/non-ischemic limb)” value in the test with ischemic hind-limb (14 days after induction of ischemia) turned out to be 0.42±0.05; in the test with ischemic hind-limb (day 28) it was 0.48±0.05. Moreover, the “limb motor function score” value is listed as 2.86±0.14 with ischemic hind-limb (day 21) and 3.29±0.18 in the test with ischemic hind-limb (day 28). In addition, the “tissue (limb) salvage score” value in the test with ischemic hind-limb (day 21) came to 3.14±0.26; with ischemic hind-limb (day 28) it was 3.43±0.37. For the same substance, the “Rota Rod walking time prior to failure” value with ischemic hind-limb (day 28, saline 90.4 seconds) is 106.7 ± 17.6 s. The “number of CD31+ capillaries in ischemic limb muscle” value in the test on ischemic hind-limb (tissue harvested at day 28, saline 893/mm2) is 954±81 /mm2. Also, the “fraction of apoptotic cells (Annexin V-PE positive)” value with HUVECs [6] was 24.2%±1.1%. For the same substance, in test [1] (HUVEC, 1 μM, 2 minutes exposure, untreated control 1.000±0.109), the “VEGFR2 phosphorylation level relative to untreated control” value is reported as 1.001±0.103.
